According to patent publication US11957684B2, “Treatment of heavy menstrual bleeding associated with uterine fibroids” (Sumitomo Pharma Switzerland GmbH, priority 2016, dated 2024):

Columns and labels:
clinical = conditions: female, human, in vivo
Procedure: The study was a phase 1, double-blind, randomized, placebo-controlled, sequential-panel, ascending single- and multiple-dose study in healthy premenopausal women. Ten groups, each of 12 healthy premenopausal, adult women, participated in the study (Cohorts 1 to 10).
Cohorts 1 to 6 were referred to as the single-rising dose (SRD) portion of the study, where cohorts were dosed in an escalating fashion. All subjects in a given cohort received their dose of study medication on the same day with the exception of subjects in Cohort 1, which were split into 2 subcohorts (Cohorts 1a and 1b). Dosing between these 2 subcohorts was separated by a minimum of 2 days. Dosing between subsequent cohorts was separated by a minimum of 7 days. The decision to proceed to Cohort 1b was made by the investigator after a minimum 48-hour evaluation of subjects in Cohort 1a. The decision to escalate the dose for the remaining cohorts in the SRD portion was based on review of the safety and pharmacokinetic data for all subjects in the previous cohort.
Subjects were required to fast overnight (minimum 10 hours) prior to dosing and continued to fast for 4 hours following dosing. Subjects were given a menu for the dosing period to include 2 meals and an evening snack, each containing approximately 25% fat content. Six ascending dose groups were planned: 1.0 mg (Cohort 1), 5.0 mg (Cohort 2), 10 mg (Cohort 3), 20 mg (Cohort 4), 40 mg (Cohort 5), and 80 mg (Cohort 6). Subjects in each of Cohorts 1a, 1b, 2, 3, 4, 5 and 6 received drug dosing on a single day only.
Cohorts 1 to 7 were each composed of 12 healthy premenopausal women aged 18 to 49 years, inclusive. […] In one sequence, dosing was under fasting conditions (minimum 10 hours). In the other sequence, dosing was approximately 30 minutes after the start of a high-fat, high calorie breakfast (provided approximately 1000 calories, with 50% of the calories from fat).
Cohorts 8 to 10 were each composed of 12 healthy premenopausal women aged 18 to 45 years, inclusive. Cohorts 8 to 10 were referred to as the multiple-rising dose (MRD) portion of the study, where cohorts were dosed in escalating fashion. The MRD portion was not started until all the blinded safety and pharmacokinetic data from the SRD cohorts had been assessed by the investigator and the sponsor. […] Subjects received the first dose of study medication (Day 1) within 2 to 7 days following the onset of their menstrual cycle. Three ascending dose groups were planned: 10 mg once-daily (QD) (Cohort 8), 20 mg QD (Cohort 9), and 40 mg QD (Cohort 10). Subjects in each of Cohorts 8 to 10 received drug dosing on 14 days (Days 1 to 14).
Subjects had to drink all of the water provided with the dose of study drug. Subjects were able to consume water ad libitum with the exception of 1 hour prior to and 1 hour after drug administration, not including the 240 mL of water taken with dosing.
To assess the food effect, an analysis of variance was performed using Cohort 7 log(mean Cmax), log(area under the plasma drug concentration-time curves [mean plasam AUCs]) as dependent variable; treatment, sequence, period as fixed effects; and subject (seq) as a random effect.

[1] = system: women with uterine fibroids; conditions: in vivo
Procedure: The primary endpoint was the proportion of patients with a total Pictorial Blood Loss Assessment Chart (PBAC) score 4 of <10 from Week 6 to 12. Secondary endpoints included amenorrhea (PBAC score of 0), myoma and uterine volumes, hemoglobin (Hb), Numerical Rating Scale (NRS) score, Uterine Fibroid Symptom and Quality of Life (UFS-QOL) scores. Serum levels of luteinizing hormone (LH), follicle-stimulating hormone (FSH), estradiol (E2) and progesterone (P) were evaluated as pharmacodynamics endpoints. Safety endpoints included adverse events (AEs), vital signs, weight, 12-lead electrocardiogram (ECG), clinical laboratory tests, bone mineral density (BMD) and recovery of menstruation.
The bone mineral density (BMD) of the second to fourth lumbar vertebra (L2 to L4) was measured using dual X-ray absorptiometry (DXA).

endometriosis = assay: Example 7 12-week study in endometriosis: efficacy (VAS, B&B, EHP-30); type: in vivo, human; conditions: for Physician B&B, dysmenorrhea / Physician B&B, dyspareunia / Physician B&B, non-menstrual pelvic pain / change from baseline in EHP-30, Control and powerlessness / change from baseline in EHP-30, Self-image / change from baseline in EHP-30, emotional well-being / change from baseline in EHP-30, pain / change from baseline in EHP-30, social support: Week 12; for Modified (patient) B&B, deep dyspareunia / Modified (patient) B&B, dysmenorrhea / Modified (patient) B&B, non-menstrual pelvic pain / change from baseline in proportion of days with usage of analgesics: end of treatment
Procedure: Secondary endpoints included VAS score for pelvic pain, dysmenorrhea, and dyspareunia during the treatment period. […] Subjects recorded in the patient diary every day until the end of treatment. […] Designated examinations and evaluations were performed at each visit. As used in the examples, the VAS score was evaluated using a 100 mm scale. For pain intensity, the scale was anchored by “no pain” (score of 0) and “pain as bad as you can imagine” (score of 100). […] The above items were evaluated using a patient diary that was distributed by the sponsor. Subjects filled out the patient diary every day during the treatment period or until early termination. If taking prohibited analgesics, subjects recorded this fact in the patient diary along with the accompanying pain symptoms before use of analgesics. As used in the examples, pain during menstruation and pelvic pain unrelated to menstruation were evaluated using scores on the M-B&B and B&B. The M-B&B scores were recorded by subjects on the patient diary supplied by the sponsor. Subjects filled out the patient diary every day during the treatment period or until early termination. If taking prohibited analgesics, subjects recorded this fact in the patient diary along with the accompanying pain symptoms before use of analgesics. The investigator or subinvestigator assessed each patient's pain through interviews and filled out a B&B once a month. The items that were assessed are shown below. The M-B&B score included: dysmenorrhea (severe, moderate, mild, no pain, or no menstruation); pelvic pain (severe, moderate, mild, or no pain); deep dyspareunia (severe, moderate, mild, no pain, or no intercourse). The B&B score included: dysmenorrhea (severe, moderate, mild, none, or not applicable); dyspareunia (severe, moderate, mild, none, or not applicable); pelvic pain (severe, moderate, mild, or none); pelvic tenderness (severe, moderate, mild, or none); and induration (severe, moderate, mild, or none). As used in the examples, the EHP-30 score was obtained by subjects assessing and recording their own QOL using the EHP-30 questionnaire.

For CONC(=O)Nc1ccc(-c2sc3c(c2CN(C)C)c(=O)n(-c2ccc(OC)nn2)c(=O)n3Cc2c(F)cccc2F)cc1 [Compound 1, N-(4-(1-(2,6-difluorobenzyl)-5-((dimethylamino)methyl)-3-(6-methoxy-3-pyridazinyl)-2,4-dioxo-1,2,3,4-tetrahydrothieno[2,3-d]pyrimidin-6-yl)phenyl)-N′-methoxyurea], the CL renal (clinical) was 95 to 138 mL/min, the “Tmax, all subjects” value (clinical) was no more than 2 h and the half-life (clinical) was 14 to 16 h. For the same molecule, the “mean Fe (fraction of dose excreted in urine)” value (clinical) was “less than 3%”, the “median Tmax” value (clinical) was 1 to 1.48 h and the half-life (clinical; 1 mg) was roughly 6 h. For the same molecule, the Tmax (clinical; 80 mg, median Tmax) was 4 h, the “menstruation recovery period after the last dose” value [1] was 20 to 35 days and the “Physician B&B, dysmenorrhea” value (endometriosis; 10 mg) was −1.0. For the same molecule, the “Physician B&B, dyspareunia” value (endometriosis; 10 mg) was −0.2, the “Physician B&B, non-menstrual pelvic pain” value (endometriosis; 10 mg) was −0.6 and the “change from baseline in EHP-30, Control and powerlessness” value (“change … Control and powerlessness” for short) (endometriosis; 10 mg) was −13.7. For the same molecule, the “change from baseline in EHP-30, Self-image” value (“change … Self-image” for short) (endometriosis; 10 mg) was −5.5, the “change from baseline in EHP-30, emotional well-being” value (from here on “change … emotional well-being”) (endometriosis; 10 mg) was −8.3 and the “change from baseline in EHP-30, pain” value (endometriosis; 10 mg) was −18.3. For the same molecule, the “change from baseline in EHP-30, social support” value (“change … social support” below) (endometriosis; 10 mg) was −6.6, the “change from baseline in mean VAS score, pelvic pain” value (“change from baseline … pelvic pain” for short) (endometriosis; 10 mg, end of 12-wk treatment period) was −6.168±9.1411 mm and the “Modified (patient) B&B, deep dyspareunia” value (endometriosis; 10 mg) was −0.08. The “Modified (patient) B&B, dysmenorrhea” value (endometriosis; 10 mg) was −0.48, the “Modified (patient) B&B, non-menstrual pelvic pain” value (endometriosis; 10 mg) was −0.21 and the “change from baseline in proportion of days with usage of analgesics” value (“change from baseline in proportion” for short) (endometriosis; 10 mg) was −6.6. The “Physician B&B, dysmenorrhea” value (endometriosis; 20 mg) was −1.5, the “Physician B&B, dyspareunia” value (endometriosis; 20 mg) was −0.2 and the “Physician B&B, non-menstrual pelvic pain” value (endometriosis; 20 mg) was −0.8. The “change … Control and powerlessness” value (endometriosis; 20 mg) was −14.6, the “change … Self-image” value (endometriosis; 20 mg) was −6.3 and the “change … emotional well-being” value (endometriosis; 20 mg) was −8.9. For the same molecule, the “change from baseline in EHP-30, pain” value (endometriosis; 20 mg) was −17.8, the “change … social support” value (endometriosis; 20 mg) was −8.4 and the “change from baseline … pelvic pain” value (endometriosis; 20 mg, end of 12-wk treatment period) was −8.070±13.3707 mm. The “Modified (patient) B&B, deep dyspareunia” value (endometriosis; 20 mg) was −0.10, the “Modified (patient) B&B, dysmenorrhea” value (endometriosis; 20 mg) was −0.76 and the “Modified (patient) B&B, non-menstrual pelvic pain” value (endometriosis; 20 mg) was −0.22. The “change from baseline in proportion” value (endometriosis; 20 mg) was −6.3, the “change from baseline … pelvic pain” value (endometriosis; 40 mg, Day 1-28) was −3.761 mm and the “change from baseline … pelvic pain” value (endometriosis; 40 mg, Day 29-56) was −8.960±9.8226 mm. For the same molecule, the “change from baseline … pelvic pain” value (endometriosis; 40 mg, Day 57-84) was −10.464±11.0995 mm, the “Physician B&B, dysmenorrhea” value (endometriosis; 40 mg) was −2.0 and the “Physician B&B, dyspareunia” value (endometriosis; 40 mg) was −0.1. The “Physician B&B, non-menstrual pelvic pain” value (endometriosis; 40 mg) was −0.9, the “change … Control and powerlessness” value (endometriosis; 40 mg) was −17.2 and the “change … Self-image” value (endometriosis; 40 mg) was −8.4. For the same molecule, the “change … emotional well-being” value (endometriosis; 40 mg) was −10.4, the “change from baseline in EHP-30, pain” value (endometriosis; 40 mg) was −25.3 and the “change … social support” value (endometriosis; 40 mg) was −6.8. For the same molecule, the “change from baseline … pelvic pain” value (endometriosis; 40 mg, end of 12-wk treatment period) was −10.418±11.0171 mm, the “Modified (patient) B&B, deep dyspareunia” value (endometriosis; 40 mg) was −0.07 and the “Modified (patient) B&B, dysmenorrhea” value (endometriosis; 40 mg) was −1.16. For the same molecule, the “Modified (patient) B&B, non-menstrual pelvic pain” value (endometriosis; 40 mg) was −0.33 and the “change from baseline in proportion” value (endometriosis; 40 mg) was −10.1.

With CCNC(=O)[C@@H]1CCCN1C(=O)[C@H](CCCNC(=N)N)NC(=O)[C@H](CC(C)C)NC(=O)[C@@H](CC(C)C)NC(=O)[C@H](Cc1ccc(O)cc1)NC(=O)[C@H](CO)NC(=O)[C@H](Cc1c[nH]c2ccccc12)NC(=O)[C@H](Cc1c[nH]cn1)NC(=O)[C@@H]1CCC(=O)N1 [leuprolide acetate, reference compound] the “Physician B&B, dysmenorrhea” value (endometriosis; 3.75 mg sc/4 wk) was −2.1, the “Physician B&B, dyspareunia” value (endometriosis; 3.75 mg sc/4 wk) was −0.6 and the “Physician B&B, non-menstrual pelvic pain” value (endometriosis; 3.75 mg sc/4 wk) was −1.1. The “change … Control and powerlessness” value (endometriosis; 3.75 mg sc/4 wk) was −19.6, the “change … Self-image” value (endometriosis; 3.75 mg sc/4 wk) was −6.1 and the “change … emotional well-being” value (endometriosis; 3.75 mg sc/4 wk) was −8.8. The “change from baseline in EHP-30, pain” value (endometriosis; 3.75 mg sc/4 wk) was −23.2, the “change … social support” value (endometriosis; 3.75 mg sc/4 wk) was −6.8 and the “change from baseline … pelvic pain” value (endometriosis; 3.75 mg sc/4 wk, end of 12-wk treatment period) was −10.460±10.3013 mm. The “Modified (patient) B&B, deep dyspareunia” value (endometriosis; 3.75 mg sc/4 wk) was −0.36, the “Modified (patient) B&B, dysmenorrhea” value (endometriosis; 3.75 mg sc/4 wk) was −1.16 and the “Modified (patient) B&B, non-menstrual pelvic pain” value (endometriosis; 3.75 mg sc/4 wk) was −0.41. The “change from baseline in proportion” value (endometriosis; 3.75 mg sc/4 wk) was −8.3.
